In ChEMBL document CHEMBL1255461, “KPC-producing extreme drug-resistant Klebsiella pneumoniae isolate from a patient with diabetes mellitus and chronic renal failure on hemodialysis in South Korea” (2010):
Values after ≈ are worked out from the molar mass of the structure shown.

The molecules below were run on Klebsiella pneumoniae (assay: Antimicrobial activity against multidrug-resistant Klebsiella pneumoniae isolate Kpn-DK2 by broth microdilution method).
Assay type: functional

Molecule | MIC
CO/N=C(\C(=O)N[C@@H]1C(=O)N2C(C(=O)O)=C(COC(C)=O)CS[C@H]12)c1csc(N)n1 [CEFOTAXIME] | > 128 µg/mL
CC1(C)[C@H](C(=O)O)N2C(=O)C[C@H]2S1(=O)=O [SULBACTAM] | 32 µg/mL (≈ 137 µM)
GENTAMICIN | > 64 µg/mL
C[C@@H](O)[C@H]1C(=O)N2C(C(=O)O)=C(SCCNC=N)C[C@H]12 [IMIPENEM ANHYDROUS] | 32 µg/mL (≈ 107 µM)
COLISTIN | > 64 µg/mL
CCN1CCN(C(=O)N[C@@H](C(=O)N[C@@H]2C(=O)N3C(C(=O)O)=C(CSc4nnnn4C)CS[C@H]23)c2ccc(O)cc2)C(=O)C1=O [CEFOPERAZONE] | > 64 µg/mL
C[C@@H](O)[C@H]1C(=O)N2C(C(=O)O)=C(S[C@@H]3CN[C@H](CNS(N)(=O)=O)C3)[C@H](C)[C@H]12 [DORIPENEM] | 16 µg/mL (≈ 38 µM)
Nc1nc(/C(=N/O)C(=O)N[C@@H]2C(=O)N3C(C(=O)O)=C(/C=C4\CCN([C@@H]5CCNC5)C4=O)CS[C@H]23)ns1 [CEFTOBIPROLE] | > 32 µg/mL
POLYMYXIN B | > 64 µg/mL
CC(C)(O/N=C(\C(=O)N[C@@H]1C(=O)N2C(C(=O)[O-])=C(C[n+]3ccccc3)CS[C@H]12)c1csc(N)n1)C(=O)O [CEFTAZIDIME] | > 64 µg/mL
CN(C)c1cc(NC(=O)CNC(C)(C)C)c(O)c2c1C[C@H]1C[C@H]3[C@H](N(C)C)C(O)=C(C(N)=O)C(=O)[C@@]3(O)C(O)=C1C2=O [TIGECYCLINE] | 4 µg/mL (≈ 6.83 µM)
CO/N=C(\C(=O)N[C@@H]1C(=O)N2C(C(=O)[O-])=C(C[N+]3(C)CCCC3)CS[C@H]12)c1csc(N)n1 | > 64 µg/mL
C[C@]1(Cn2ccnn2)[C@H](C(=O)O)N2C(=O)C[C@H]2S1(=O)=O [TAZOBACTAM] | 4 µg/mL (≈ 13.3 µM)
C[C@H]1[C@H](NC(=O)/C(=N\OC(C)(C)C(=O)O)c2csc(N)n2)C(=O)N1S(=O)(=O)O [AZTREONAM] | > 64 µg/mL
CCN1CCN(C(=O)N[C@@H](C(=O)N[C@@H]2C(=O)N3[C@@H]2SC(C)(C)[C@@H]3C(=O)O)c2ccccc2)C(=O)C1=O [PIPERACILLIN] | > 256 µg/mL
COc1cc(Cc2cnc(N)nc2N)cc(OC)c1OC [TRIMETHOPRIM] | > 32 µg/mL
CC1(C)S[C@@H]2[C@H](NC(=O)[C@H](N)c3ccccc3)C(=O)N2[C@H]1C(=O)O [AMPICILLIN] | > 64 µg/mL
